Experimental data taken from patent publication US8518989B2, “Prodrugs of short-chain fatty acids and treatment methods” (Georgia Health Sciences University Research Institute, Inc., priority 2005, dated 2013).

Experiments:
rat ATB^0,+ [1] = biological target: T1, rat ATB^0,+ (Rattus norvegicus, UniProt Q334I2); assay: Inhibition of ATB0,+-mediated 3H-glycine uptake in HRPE cells expressing cloned rat ATB0,+; assay type: cell-based; conditions: 5 mM; HRPE cells
T1 sequence (Q334I2 1-640): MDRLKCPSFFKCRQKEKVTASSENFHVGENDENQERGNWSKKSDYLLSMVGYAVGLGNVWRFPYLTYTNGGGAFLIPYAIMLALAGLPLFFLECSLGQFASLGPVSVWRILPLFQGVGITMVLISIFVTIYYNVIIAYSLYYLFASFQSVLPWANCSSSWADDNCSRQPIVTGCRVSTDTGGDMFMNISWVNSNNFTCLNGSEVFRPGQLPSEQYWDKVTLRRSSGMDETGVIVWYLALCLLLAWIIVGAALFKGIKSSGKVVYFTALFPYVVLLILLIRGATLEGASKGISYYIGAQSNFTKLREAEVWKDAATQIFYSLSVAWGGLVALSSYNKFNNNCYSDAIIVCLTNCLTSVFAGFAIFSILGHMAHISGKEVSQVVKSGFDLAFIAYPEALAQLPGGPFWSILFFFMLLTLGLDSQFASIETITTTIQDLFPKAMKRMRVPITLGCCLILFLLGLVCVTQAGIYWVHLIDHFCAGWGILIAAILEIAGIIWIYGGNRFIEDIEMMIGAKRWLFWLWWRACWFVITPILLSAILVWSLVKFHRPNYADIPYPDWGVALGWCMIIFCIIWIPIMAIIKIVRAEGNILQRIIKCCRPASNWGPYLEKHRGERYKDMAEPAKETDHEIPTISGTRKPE

rat ATB^0,+ [2] = biological target: T1, rat ATB^0,+; assay: Substrate-induced inward currents in Xenopus oocytes expressing rat ATB0,+ (voltage clamp); assay type: cell-based; conditions: 5 mM; voltage clamp
Protocol: Experiments with HRPE cells were repeated at least three times with three independent transfections and transport measurements made in duplicate in each experiment. Electrophysiological measurements of substrate-induced currents were repeated at least three times with separate oocytes. The data are presented as means±S.E.M. of these replicates. The kinetic parameters, Michaelis constant (Kt) and maximal velocity (Vmax) were calculated by fitting the ATB^0,+-specific transport data to the Michaelis-Menten equation describing a single saturable transport system. Na^+ and Cl^−-activation kinetics were analyzed by fitting the ATB^0,+-specific transport data to the Hill equation for the determination of K0.5 values for Na^+ and Cl^− (concentration of Na^+ and Cl^− necessary for half-maximal activation) and the Hill coefficient (nH; the number of Na^+ or Cl^− ions involved in the activation process). The kinetics parameters were first determined by non-linear regression methods and subsequently confirmed by linear regression methods using the commercially-available computer program SigmaPlot, version 6.0 (SPSS Inc., Chicago, Ill., US).
Therefore, it was necessary to determine whether or not the α-carboxyl esters of neutral amino acids are transportable substrates for ATB^0,+. For this purpose, we used the X. laevis oocyte expression system. Cloned rat ATB^0,+ was functionally expressed in oocytes by injection of corresponding cRNA, and the transport of substrates via the transporter was monitored by inward currents when the oocytes were exposed to putative substrates under voltage-clamp conditions.

HDAC = HDAC activity in a cell-free system with MCF7 cell lysate; assay type: biochemical, human
Protocol: Measurement of HDAC activity in a cell-free system: This was done using a commercially available assay kit (BioVision). MCF7 cell lysate was used as a source of HDAC activity. 50 μg of lysate protein was incubated with various monocarboxylates (1 mM), or trichostatin A (20 μM), and the reaction was initiated by the addition of HDAC substrate. The reaction was then terminated and the deacetylated product was measured according to the manufacturer's instructions. The activity is expressed in nmoles of deacetylated product formed per μg of MCF7 cell lysate protein per 30 min.

CC(=O)O [acetate]
Inhibition of ATB0,+-mediated glycine transport (in words) (rat ATB^0,+ [1]): did not inhibit glycine transport | Inward currents induced in ATB0,+-expressing oocytes (in words) (rat ATB^0,+ [2]): did not induce detectable current | HDAC inhibition (in words) (HDAC): least potent
